Literature values in US8652504B2, “Solid polymer delivery compositions and methods for use thereof” (Medivas, LLC, priority 2005, dated 2014).

What was measured:
[1] = in vivo
[2] = system: nerve impulses; settings: local anesthetic

| Compound | morphine requirements and subjective pain scores (intra-articular bupivacaine (up to 0.5%) at 4 mL/hr, first 24 hours after surgery) | serum bupivacaine level (one patient receiving 0.5% intra-articular bupivacaine at 4 mL/hr) [µg/mL] | serum bupivacaine level at which toxicity has been reported / generally considered toxic [1] [µg/mL] | duration of action [2] [h] |
| --- | --- | --- | --- | --- |
| CCCCN1CCCCC1C(=O)Nc1c(C)cccc1C (centres unmarked) [bupivacaine] | neither reduced morphine requirements nor decreased subjective pain scores | 1.2 | 1.0 | 6 to 8 |
| CCN(CC)CC(=O)Nc1c(C)cccc1C [lidocaine] | – | – | – | 1 to 2 |
